Molecules are shown by their SMILES.

One may read the Kd as the concentration at which binding is half-saturated. Higher therefore signals lower affinity.

Assay [1] has as its system smFRET SAM/SAH riboswitch with 3' DNA extension on anchor DNA (DNA:RNA, riboswitch, 3' 18 nt of strand 1 and all of strand 2 are DNA) GAUACCUGUCACAACGGCUUCCUGGCGUGACGAGGUGACCUCAGUGGAGCAAACCGCTGCCGTCGCTCCG/CGGAGCGACGGCAGCGGT
In words: single-molecule FRET, high-FRET fraction. As to conditions: 100 mM K+, 2 mM Mg2+; 40 mM HEPES pH 7.5, surface-immobilised RNA, two-state isotherm.

Assay [2] has as its system G44O2'H-modified SAM/SAH riboswitch (RNA, riboswitch, 2'-deoxyguanosine at 42 (paper position 44)) UACCUGUCACAACGGCUUCCUGGCGUGACGAGGUGACCUCAGUGGAGCAA
The assay can be described thus: ITC. As to conditions: 100 mM K+, 10 mM Mg2+; 40 mM HEPES pH 7.0, 298 K; 40 µM RNA, 1 mM ligand stock (legend; methods: 500 µM).

Assay [3] relates to SK209-50 SAM/SAH riboswitch (wt) (RNA, riboswitch) UACCUGUCACAACGGCUUCCUGGCGUGACGAGGUGACCUCAGUGGAGCAA
In words: ITC. Particulars: 100 mM K+, 10 mM Mg2+; 40 mM HEPES-K pH 7.0, 298 K.

Assay [4] concerns U23isoC-modified SAM/SAH riboswitch (RNA, riboswitch, isocytidine at 21 (paper position 23, replaces U)) UACCUGUCACAACGGCUUCCUGGCGUGACGAGGUGACCUCAGUGGAGCAA
The assay can be described thus: ITC. Particulars: 100 mM K+, 10 mM Mg2+; 40 mM HEPES pH 7.0, 298 K; 40 µM RNA, 1 mM ligand stock (legend; methods: 500 µM).

Assay [5] has as its system crystallized SAM/SAH riboswitch (RNA1-26 + RNA2-9) (RNA, riboswitch, 5-bromocytidine at 4 of strand 1) GGUCACAACGGCUUCCUGGCGUGACC/AUUGGAGCA
In words: X-ray crystallography. As to conditions: crystal.

For assay [6], the system named is G46N7CH-modified SAM/SAH riboswitch (RNA, riboswitch, 7-deazaguanosine (N7 to CH) at 44 (paper position 46)) UACCUGUCACAACGGCUUCCUGGCGUGACGAGGUGACCUCAGUGGAGCAA
The assay can be described thus: ITC. As to conditions: 100 mM K+, 10 mM Mg2+; 40 mM HEPES pH 7.0, 298 K; 40 µM RNA, 1 mM ligand stock (legend; methods: 500 µM).

Assay [7] deals with U23C-modified SAM/SAH riboswitch (RNA, riboswitch) UACCUGUCACAACGGCUUCCCGGCGUGACGAGGUGACCUCAGUGGAGCAA
The assay can be described thus: ITC. Particulars: 100 mM K+, 10 mM Mg2+; 40 mM HEPES pH 7.0, 298 K; 40 µM RNA, 1 mM ligand stock (legend; methods: 500 µM).

In assay [8] the test system is SAM/SAH riboswitch G44U (RNA, riboswitch) UACCUGUCACAACGGCUUCCUGGCGUGACGAGGUGACCUCAUUGGAGCAA
The assay can be described thus: ITC. Particulars: 100 mM K+, 10 mM Mg2+; 40 mM HEPES-K pH 7.0, 298 K.

As to `C[S+](CC[C@H](N)C(=O)O)C[C@H]1O[C@@H](n2cnc3c(N)ncnc32)[C@H](O)[C@@H]1O` (stereo partly shown), the Kd in assay [1] is 10 µM; in assay [3] it was 19 ± 2 µM; in assay [8], 13 ± 3 µM. Besides, the binding entry in assay [2] is on record as “weak”; in assay [4], “no”; in assay [5] (also 6YMM in space group P312), “yes”; in assay [6], “no”; in assay [7], “no”.

On to `NCCCSC[C@H]1O[C@@H](n2cnc3c(N)ncnc32)[C@H](O)[C@@H]1O`, for which the Kd in assay [3] was 12 ± 1 µM. Also, in assay [5], the binding result was “yes”.

As for `Nc1ncnc2c1ncn2[C@@H]1O[C@H](COP(=O)(O)O)[C@@H](O)[C@H]1O`, in assay [5], the binding result was “yes”.

For the molecule `Nc1ncnc2c1ncn2[C@@H]1O[C@H](CSCC[C@H](N)C(=O)O)[C@@H](O)[C@H]1O`, the Kd amounted to 6 µM in assay [1] and 20 ± 2 µM in assay [3]. Also, in assay [5] (1.7 Å, second SAH only at lattice contact), the binding result is reported as “yes”.

Regarding `Nc1ncnc2c1ncn2[C@@H]1O[C@H](CO)[C@@H](O)[C@H]1O`, the binding entry in assay [5] is on record as “yes”.

Turning to `CSC[C@H]1O[C@@H](n2cnc3c(N)ncnc32)[C@H](O)[C@@H]1O`, the binding entry in assay [5] (PDB title says AMP, ligand record MTA) is reported as “yes”.
